row,SMILES,melting point
1,CCCCCCCCCCCCCCCCCCNC(=O)OCC(CN(C(C)=O)S(=O)(=O)CCCCl)NC(C)=O (configuration not stated),116 to 117 °C
2,O=C(O)C(CCc1ccccc1)(CCc1ccccc1)C(=O)O,168 to 172 °C
3,CCCCCCCCCC(=O)Nc1ccc(S(=O)(=O)Nc2nnc(C(C)(C)C)s2)cc1,156 to 157 °C
4,CN(CCCC(=O)O)c1ccc(C(=O)c2ccccc2)cc1,111 to 113 °C
5,CC(C(=O)O)N(O)C(C)(C)C (configuration not stated),73 to 74 °C
6,CCCC(=O)c1cc2c(cc1C)NC(=O)C2(O)C(=O)OCC (configuration not stated),180 to 181 °C
7,COC(=O)[C@H](c1ccccc1Cl)N1CCc2sc(OC(=O)N(C)C)cc2C1,96 to 98 °C
8,O=C(Nc1ccc(-c2ccc(C(=O)N3CCN4CCC3CC4)o2)cc1)Nc1cccc(F)c1,230 °C
9,CN(C)Cc1nc(-c2ncn3c2C2CCCN2C(=O)c2c(Cl)cccc2-3)no1 (configuration not stated),261 °C
10,CC1(O)CC(=O)OC(c2ccc(OCc3ccccc3)cc2)C1Br (configuration not stated),157 to 162 °C
11,O=C(c1ccccc1)c1cc(Cl)ccc1-n1c(Br)nnc1CN1C(=O)c2ccccc2C1=O,202 to 204 °C
12,COC(=O)c1cc(N(C)C)cc(N(C)C)c1,86 to 88 °C
13,Cc1nc(Cn2c(=O)sc3cc(F)c(N=C=S)cc32)no1,168 to 170 °C
14,NC(=O)c1cc(NC(=O)c2ccccc2)ccc1SSc1ccc(NC(=O)c2ccccc2)cc1C(N)=O,273 to 274 °C
15,O=C(Nc1ccccc1)NN1CCN(CCc2c[nH]c3ccccc23)CC1,168 to 171 °C
16,O=C1CCc2cc(-c3cccc(Cl)c3)ccc21,113 °C
17,NC(=S)NCCCCCC(=O)Nc1ccc(C(F)(F)F)cc1,140 to 142 °C
18,O=C(NCCO)c1cnccn1,125 °C
19,Cc1cc(C=O)cc(Oc2[nH]c(=O)[nH]c(=O)c2C(C)C)c1,241 to 242 °C
20,CC1(O)CCC(=O)N(O)C1 (configuration not stated),98 to 100 °C
21,C=CCN(CC=C)C(=O)Nc1cc(C)c(S(=O)(=O)C[N+](=O)[O-])c(C)c1,127 to 129 °C
22,O=[N+]([O-])c1ccc(F)c(CNCCO)c1,93 to 94 °C
23,CC(C(=O)O)C(=O)c1ncc(Cl)cc1F (configuration not stated),101 to 102 °C
24,O=C1c2c(O)cccc2C(c2ccccc2)c2cccc(O)c21,193 to 194 °C
25,O=c1[nH]c(=O)c2ccsc2[nH]1,> 300 °C
26,COc1ccc(Br)cc1C1C2CC3CC(C2)CC1C3 (configuration not stated),140 to 141 °C
27,CCOC(Cc1ccc(NCCCC2=CCC(NS(C)(=O)=O)(OC(C)(C)C)C=C2)cc1)C(=O)O (configuration not stated),78 to 80 °C
28,O=c1c2c(Cl)cc(Cl)cc2n(Cc2ccccc2)c(=O)n1Cc1ccccc1Br,129 to 132 °C

row,SMILES,melting point
1,O=C1c2c(cc(O)c(O)c2[N+](=O)[O-])CC1CN1CCOCC1 (configuration not stated),193 to 195 °C
2,NC(=O)CN1C(=O)CN2C(=O)CCC12 (configuration not stated),182 to 185 °C
3,CN1C(=O)CN=C(c2ccccc2Cl)c2cccn21,132 to 134 °C
4,N#Cc1cc(O)ccc1Br,183 to 184 °C
5,CCCC(=O)OCC(=O)c1ccc(-c2ccccc2)cc1,82 °C
6,CSC(=CC(=O)c1cnccn1)SC,155 °C
7,C#CCN(C(=O)C(F)(F)F)[C@H]1CCc2ccc([N+](=O)[O-])cc21,83 to 85 °C
8,O=CN1CCn2nccc21,78 to 80 °C
9,CCOc1cc([N+](=O)[O-])c(N)cc1C(=O)OC,156 to 157 °C
10,NC(=S)c1ccc([N+](=O)[O-])cc1,165 to 167 °C
11,CCNc1ccc(CN2OCC(C)(C)C2=O)c(Cl)c1,135 to 138 °C
12,N#CN1CCC2(CC1)CN(c1ccccc1Cl)c1ccccc12,158 to 160 °C
13,COc1ccc2c(c1)C(=O)OC2C(Cl)(Cl)Cl (configuration not stated),134 to 136 °C
14,CCC(=O)N1CCC(=O)c2cc(Cl)c(Cl)cc21,135 to 137 °C
15,CN1C(=O)CN=C(c2ccccc2F)c2cc(NC(=O)NCCCO)ccc21,118 to 119 °C
16,O=C(Cl)c1ccc2c(c1I)OCO2,69 to 70 °C
17,Fc1ccc(Sc2c[nH]c3ncccc23)cc1,183 to 184 °C
18,CCOC(=O)c1cnc2n(c1=O)C(C)CC=C2NC (configuration not stated),141 to 142 °C
19,c1cc(-c2ccc(N3CCCN(c4ccc(-c5ccsc5)cn4)CC3)nc2)cs1,234 to 236 °C
20,CC(=O)Nc1cccc2c1C(=O)c1ccccc1C2=O,221 °C
21,CN(C#N)C(=O)CCCC(=O)N(C)C#N,51.4 to 52.8 °C
22,O=C(Nc1cccc(C(F)(F)F)c1)NC1CCN(S(=O)(=O)c2ccc(Cl)cc2)CC1,116 to 118 °C
23,CCOC(=O)C=CC=Cc1cccc([N+](=O)[O-])c1,100 to 101 °C
24,O=[N+]([O-])c1nc(CC(O)C2CO2)c[nH]1 (configuration not stated),90 to 92 °C
25,O=C(O)C(C1CC(Cl)=NO1)N1C(=O)c2ccccc2C1=O (configuration not stated),178 to 179 °C
26,O=[N+]([O-])c1c(F)c(F)c(O)c(Cl)c1F,107 to 109 °C
27,O=C(NCCCCCCCNC(=O)c1ccc(OC(F)(F)F)cc1)c1ccc(OC(F)(F)F)cc1,150 to 151 °C

# The next lines start with the values.
row,melting point,SMILES
1,64 to 65 °C,CC(C)(C)C(=O)OCCCCCCOc1ccc(Nc2ccccc2)cc1
2,142 to 143 °C,CCOc1ccc(C2=NNC(=O)CC2)cc1OCC
3,189 to 192 °C,CSc1cc(C)nc(SC)c1NC(=O)CCCCCCSc1nc2ccccc2[nH]1
4,164 to 166 °C,Cn1cc(C(=O)CN2CCN(c3ncccn3)CC2)cc1C(=O)c1ccc([N+](=O)[O-])cc1
5,65 to 69 °C,CC(C)(O)COc1c(-c2ccc(S(N)(=O)=O)cc2)cnn(-c2ccc(F)c(F)c2)c1=O
6,112 to 114 °C,CCc1nc2c(cnn2CC)c(NC2CCOCC2)c1CNC(=O)c1cccc(C(=O)NCc2cc(Cl)cc(-c3cccc(CN4CC(C)NC(C)C4)c3)c2)c1 (configuration not stated)
7,144 to 146 °C,CC(C)(C)C(=O)OCN(c1ccc(CN2CCN(Cc3ccccc3)C(=O)C2=O)cc1)c1ncccn1
8,136 to 138 °C,O=C(O)CCCCc1ccc(NS(=O)(=O)c2ccccc2)cn1
9,350 to 360 °C,Cn1c2ccc(F)cc2c(=O)n2nc(-c3nnn[nH]3)cc12
10,113 to 114 °C,CC(=O)OC1CC(C)(C)C(OC(=O)c2ccccc2)C(O)C=C1C (configuration not stated)
11,74 to 76 °C,CC(CCO)N1CCC(Cc2ccccc2)CC1 (configuration not stated)
12,120 to 121 °C,CCn1ncc(CC(=O)O)c1OCCCc1cn(-c2ccc(C(F)(F)F)cn2)nc1C(C)C
13,> 300 °C,Cn1nc(-c2ccccc2)c2c(=O)[nH]c(N)nc21
14,170 to 176 °C,CCOC(=O)c1ccc2c(c(C)nn2C)c1C#N
15,260 to 265 °C,CN1CCC(c2ccc(Nc3cc(-c4cccc(-n5ncc6cc(C(C)(C)C)cc(F)c6c5=O)c4CO)nn(C)c3=O)nn2)CC1
16,138 to 140 °C,CCOC(=O)N1CCC(Nc2nc3ccccc3n2Cc2ccc(CO)o2)CC1
17,138 to 140 °C,COc1cccc(CCc2c(CC(=O)NC(C)C)ccc(OC)c2OC)c1
18,121 to 123 °C,COc1c2c(c(OC)c(OC)c1OC)CCC(CCn1cnc3ccccc31)CC2
19,104 to 106 °C,Cc1cc(OC2CCN(C(=O)OC(C)(C)C)CC2)ccc1[N+](=O)[O-]
20,214 to 215 °C,CCc1cccc(CC)c1NC(=O)Nc1oc2ccc(C)cc2c1-c1ccccc1Cl
21,183 to 184 °C,CC(C)n1c2c(c3cccc(F)c31)C(=O)NCC2
22,172 to 175 °C,Cn1cc(Cl)c2c1C(=O)Nc1ccccc1N2
23,69 °C,CCOCCOc1cc(C)c(-c2cccc(COc3ccc(C=CC(=O)OC)cc3)c2)c(C)c1
24,248 °C,N#CC1=C(C2CC2)Nc2n[nH]cc2C1c1cccc2nocc12 (configuration not stated)

row,melting point,SMILES
1,87 to 88 °C,C=C1CC2C(=O)C(c3c(CC)cc(C)cc3CC)=C(OCc3ccccc3)C2C1 (configuration not stated)
2,210 to 213 °C,COC(c1ccccc1Cl)c1cc(Cl)ccc1-c1c(C(=O)O)cnn1C (configuration not stated)
3,121 °C,COc1ccc(CCN(C)C(=O)COc2ccc([N+](=O)[O-])cc2)cc1OC
4,165 to 166 °C,O=C(NCCc1ccccc1)C1=C(C(=O)Nc2cc(OC3CCCC3)c(Cl)cc2F)CCCC1
5,118 to 122 °C,O=C(c1cc(C2=CCCCC2)ccn1)N(O)Cc1ccccc1
6,190 to 192 °C,CCOC(=O)c1nc(-c2cccc3ccccc23)[nH]c1-c1ccc(C)cc1
7,109 to 114 °C,COc1c(/C=C/c2cc(/C=C/c3ccc4cc[nH]c4c3)n[nH]2)cccc1OCc1ccccn1
8,198 °C,Cc1ccc2c(c1)C=Cc1sc(C)nc1C2c1cn(CCN2CCCC2)c(=O)[nH]c1=S (configuration not stated)
9,167 to 168 °C,COc1cc(OC)c(-c2cc3ccccc3n2C)cc1C=CC(=O)c1ccc(S(=O)(=O)NCCN2CCOCC2)cc1
10,156 °C,O=C1NC(=O)c2ccc(Br)cc2/C1=C/N1CCN(CCN2CCOCC2)CC1
11,98 to 102 °C,COc1c2c(c(OC)c(OC)c1OC)CCC(CCOc1ccc(Cl)cc1)CC2
12,259 to 263 °C,CN1CCN(c2ccnc3c(NC(=O)c4c(Cl)cccc4Cl)ccc(Cl)c23)C1=O
13,94 to 95 °C,CC(C)n1c(C=O)c(-c2ccc(F)cc2)c(-c2ccc(F)cc2)c1C(=O)OCc1ccccc1
14,162 to 166 °C,Cc1ccc(NC(=O)c2cccc(N3CCOCC3)c2)cc1NC(=O)c1cccc(OC2CCNCC2)c1
15,106 to 107 °C,CC(=O)c1ccc2c(c1)ncn2-c1cccc(C(=O)OC2CCN(C)CC2)c1
16,83.5 to 84.5 °C,CCc1cccc(CC)c1NC(=O)c1c(C)oc(C)cc1=O
17,47 to 48 °C,CC(C)(O)Cc1cccc2ccccc12
18,120 to 121 °C,Clc1cnc2c(-c3ccccc3)nc(-c3ccccc3)nc2c1
19,228 to 234 °C,COc1ccc(-c2nc(C(F)(F)F)[nH]c2-c2ccc(S(C)(=O)=O)cc2)cc1F
20,130 to 131 °C,Cc1cn(C)cc(-c2cccc(C(F)(F)F)c2)c1=O
21,146 to 148 °C,CCC(=O)Nc1ccc(Br)c(-n2nc(CC)n(Cc3ccc(-c4ccccc4S(=O)(=O)NC(=O)OC(C)(C)C)cc3F)c2=O)c1
22,235 to 237 °C,COc1cc2ncc(C#N)c(Nc3ccc(SC)cc3)c2cc1OC
23,160 to 161 °C,CN(Cc1ccccc1)C(=O)Cn1c(=O)n(C)c2nc(-c3ccccc3)ncc21
